Assay results: patent US9682960B2 (priority 2013, dated 2017)
Like-named read-outs stand apart in the source and are kept apart here.

How the values were obtained:
[1] = system: Shionogi mouse mammary carcinoma cells; assay: In vitro androgenic/antiandrogenic activity: proliferation of Shionogi cells with or without DHT; type: cell-based; conditions: for IC50: Mus musculus; for fold more potent than OH-flutamide in reversing DHT-stimulated Shionogi cell proliferation: versus hydroxyflutamide
Human Androgen Receptor = Human Androgen Receptor (Homo sapiens (Human), UniProt P10275); assay: Androgen receptor assay: [3H]R1881 displacement, cytosol of HEK-293 cells transfected with hAR (hydroxylapatite assay); type: binding; conditions: for Human Androgen Receptor Binding RBA (%) R1881 = 100: relative binding affinity; for times more potent than OH-flutamide on the human AR (RBA ratio): versus hydroxyflutamide
[2] = system: castrated (CX) immature male rats; assay: Systemic androgenic (agonistic) activity in orchidectomized (CX) immature male rats; type: in vivo, rat; conditions: 0.1 mg/rat/po, 7 days; for CX Agonistic activity % Stimulation Bulbo: bulbocavernosus muscles weight; for CX Agonistic activity % Stimulation SV: seminal vesicles weight; for CX Agonistic activity % Stimulation Prostate: ventral prostate weight
Description: Immature male rats (Crl:CD(SD)Br) 22 to 24-day old weighting 60-80 g at start of treatment were obtained from Charles-River, Inc. (St-Constant, Quebec, Canada) and housed up to 5 per cage in plastic bins in a temperature (23±1° C.)- and light (12 h light/day, lights on at 7 h15)-controlled environment. The rats were fed rodent chow and tap water ad libitum. […] The day following their arrival, the designed animals were orchidectomized (CX) under Isoflurane anesthesia (Study Day 1) via the scrotal route and were then randomly assigned to groups of 3 to 5 animals. At the time of orchidectomy, one silastic implant of dihydrotestosterone (DHT; 1 cm length of pure DHT in silastic tubing having inner and outer diameter of 0.078 and 0.125 inches, respectively), was inserted subcutaneously in the dorsal area of animals assigned to the evaluation of antiandrogenic activity. In the case of intact animal experiments, the orchidectomy and the silastic implant installation are omitted.
Tested compounds were administered orally once daily for 7 days from Study Day 2 to Study Day 8 at doses generally ranging from 0.1 and 0.5 mg/animal. Compounds were either solubilized in dimethylsulfoxide (DMSO, 10% final concentration) and were administered as a solution/suspension in 0.9% NaCl-1% gelatin or were administered as suspensions in 0.4% aqueous methylcellulose. Animals of the control groups received the corresponding vehicle alone during the 7-day period. Some animals were treated with the antiandrogen Flutamide or Casodex as reference. The animals under isoflurane anesthesia were killed by cervical dislocation on day 9 of the study, approximately 24 h after the last dosing. The ventral prostate, seminal vesicles and bulbocavernosus muscles were rapidly dissected and weighed.
For calculations with intact animals, control DHT is replaced by control intact and the % stimulation is subtracted by 100%. W is the weight of the prostate, seminal vesicles or bulbocavernosus muscles. Discussion

[3] = read-out: Shionogi Antiandrogenic Activity IC50, DHT (0.3 nM)-stimulated cell number
[4] = DHT (0.3 nM)-stimulated cell number, read-out: Shionogi Antiandrogenic Activity IC50

Human Androgen Receptor, sequence (P10275 whole entry): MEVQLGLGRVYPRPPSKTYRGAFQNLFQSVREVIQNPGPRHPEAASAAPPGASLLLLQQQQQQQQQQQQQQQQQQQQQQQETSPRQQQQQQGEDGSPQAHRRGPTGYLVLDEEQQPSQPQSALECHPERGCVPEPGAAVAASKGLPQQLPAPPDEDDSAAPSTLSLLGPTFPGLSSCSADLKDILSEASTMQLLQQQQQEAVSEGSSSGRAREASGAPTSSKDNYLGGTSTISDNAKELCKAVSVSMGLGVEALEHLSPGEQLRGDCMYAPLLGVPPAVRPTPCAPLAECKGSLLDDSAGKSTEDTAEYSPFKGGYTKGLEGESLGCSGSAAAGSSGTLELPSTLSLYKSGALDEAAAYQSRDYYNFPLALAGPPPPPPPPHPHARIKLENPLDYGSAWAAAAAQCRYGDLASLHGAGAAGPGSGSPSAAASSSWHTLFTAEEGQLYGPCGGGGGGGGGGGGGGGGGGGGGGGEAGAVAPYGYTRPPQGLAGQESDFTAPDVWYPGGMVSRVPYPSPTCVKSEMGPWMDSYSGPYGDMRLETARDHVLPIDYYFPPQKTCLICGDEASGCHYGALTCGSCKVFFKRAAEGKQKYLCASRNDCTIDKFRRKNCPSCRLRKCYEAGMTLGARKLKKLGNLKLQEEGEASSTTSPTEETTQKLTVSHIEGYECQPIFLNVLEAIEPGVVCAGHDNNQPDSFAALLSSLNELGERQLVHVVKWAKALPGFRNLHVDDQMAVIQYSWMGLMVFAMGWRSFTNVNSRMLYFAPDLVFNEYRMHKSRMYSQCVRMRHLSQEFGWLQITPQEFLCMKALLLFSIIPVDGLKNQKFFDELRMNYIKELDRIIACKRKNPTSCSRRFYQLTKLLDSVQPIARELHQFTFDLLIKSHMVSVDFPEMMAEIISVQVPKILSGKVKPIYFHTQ

## Cc1c(N2C(=O)C(C)(C)N(CCCOc3ccc(-c4cccnc4)cc3)C2=S)ccc(C#N)c1Cl [EM-8656]
[1]; [3]
  IC50: > 100 nM
Human Androgen Receptor; […]
  Human Androgen Receptor Binding RBA (%) R1881 = 100: 477 ± 16 (n = 2) %
[2]
  CX Agonistic activity % Stimulation Bulbo: 73%
  CX Agonistic activity % Stimulation SV: 24%
  CX Agonistic activity % Stimulation Prostate: 38%

## Cc1c(N2C(=O)C(C)(C)N(CCCOc3ccc(-c4ccncc4)cc3)C2=S)ccc(C#N)c1Cl [EM-8664]
[1]; [3]
  IC50: > 100 nM
Human Androgen Receptor; […]
  Human Androgen Receptor Binding RBA (%) R1881 = 100: 664%
[2]
  CX Agonistic activity % Stimulation Bulbo: 177%
  CX Agonistic activity % Stimulation SV: 66%
  CX Agonistic activity % Stimulation Prostate: 62%

## Cc1c(N2C(=O)C(C)(C)N(CCCOc3ccc(-c4cncnc4)cc3)C2=S)ccc(C#N)c1Cl [EM-8685]
[1]; [3]
  IC50: > 100 nM
Human Androgen Receptor; […]
  Human Androgen Receptor Binding RBA (%) R1881 = 100: 144%
[2]
  CX Agonistic activity % Stimulation Bulbo: 136%
  CX Agonistic activity % Stimulation SV: 20%
  CX Agonistic activity % Stimulation Prostate: 41%

## Cc1c(N2C(=O)C(C)(C)N(CCCOc3ccc(-c4cccnc4)cc3F)C2=S)ccc(C#N)c1Cl [EM-8714]
[1]; [3]
  IC50: 97 nM
Human Androgen Receptor; […]
  Human Androgen Receptor Binding RBA (%) R1881 = 100: 355%
[2]
  CX Agonistic activity % Stimulation Bulbo: 78%
  CX Agonistic activity % Stimulation SV: 18%
  CX Agonistic activity % Stimulation Prostate: 45%

## Cc1c(N2C(=O)C(C)(C)N(CCCOc3ccc(-c4ccccn4)cc3F)C2=S)ccc(C#N)c1Cl [EM-8715]
[1]; [3]
  IC50: 57.3 nM
Human Androgen Receptor; […]
  Human Androgen Receptor Binding RBA (%) R1881 = 100: 155%
[2]
  CX Agonistic activity % Stimulation Bulbo: 58%
  CX Agonistic activity % Stimulation SV: 11%
  CX Agonistic activity % Stimulation Prostate: 35%

## Cc1c(N2C(=O)C(C)(C)N(CCCOc3ccc(-c4ccncc4)cc3F)C2=S)ccc(C#N)c1Cl [EM-8723]
[1]; [3]
  IC50: 120 nM
Human Androgen Receptor; […]
  Human Androgen Receptor Binding RBA (%) R1881 = 100: 408%
[2]
  CX Agonistic activity % Stimulation Bulbo: 129%
  CX Agonistic activity % Stimulation SV: 56%
  CX Agonistic activity % Stimulation Prostate: 60%

## Cc1c(N2C(=O)C(C)(C)N(CCCOc3ccc4ncccc4c3)C2=S)ccc(C#N)c1Cl [EM-8728]
[1]; [3]
  IC50: 53.4 nM
Human Androgen Receptor; […]
  Human Androgen Receptor Binding RBA (%) R1881 = 100: 125.4%
[2]
  CX Agonistic activity % Stimulation Bulbo: 98%
  CX Agonistic activity % Stimulation SV: 25%
  CX Agonistic activity % Stimulation Prostate: 48%

## Cc1c(N2C(=O)C(C)(C)N(CCCOc3ccc4cccnc4c3)C2=S)ccc(C#N)c1Cl [EM-8730]
[1]; [4]
  IC50: 105 nM
Human Androgen Receptor; transfected cells
  Human Androgen Receptor Binding RBA (%) R1881 = 100: 140.5%
[2]
  CX Agonistic activity % Stimulation Bulbo: 178%
  CX Agonistic activity % Stimulation SV: 73%
  CX Agonistic activity % Stimulation Prostate: 59%

## Cc1c(N2C(=O)C(C)(C)N(CCCOc3ccc(-c4ccncc4)cc3C(F)(F)F)C2=S)ccc(C#N)c1C(F)(F)F [EM-8772]
[1]; [4]
  IC50: 137 nM
Human Androgen Receptor; transfected cells
  Human Androgen Receptor Binding RBA (%) R1881 = 100: 2.6%
[2]
  CX Agonistic activity % Stimulation Bulbo: 104%
  CX Agonistic activity % Stimulation SV: 15%
  CX Agonistic activity % Stimulation Prostate: 29%

## CC1(C)C(=O)N(c2ccc(C#N)c(Cl)c2)C(=O)N1CCCOc1ccc(-c2cc[n+]([O-])cc2)cc1 [EM-9118]
[1]; [3]
  IC50: 15 ± 3 nM
Human Androgen Receptor; […]
  Human Androgen Receptor Binding RBA (%) R1881 = 100: 2.2 ± 0.4 (n = 6) %

## CC1(C)C(=O)N(c2ccc(C#N)c(Cl)c2)C(=S)N1CCCOc1ccc(-c2cc[n+]([O-])cc2)c(F)c1 [EM-9119]
[1]; [3]
  IC50: 12.1 ± 0.5 nM
Human Androgen Receptor; […]
  Human Androgen Receptor Binding RBA (%) R1881 = 100: 122%

## CC1(C)C(=O)N(c2ccc(C#N)c(Cl)c2)C(=S)N1CCCOc1ccc(-c2cc[n+]([O-])cc2)cc1 [EM-9120]
[1]; [3]
  IC50: 9.2 ± 0.8 nM
Human Androgen Receptor; […]
  Human Androgen Receptor Binding RBA (%) R1881 = 100: 106%

## CC1(C)C(=O)N(c2ccc(C#N)c(C(F)(F)F)c2)CC(=O)N1CCCOc1ccc(-c2ccncc2)cc1 [EM-9126]
[1]; [3]
  IC50: 173 nM
Human Androgen Receptor; […]
  Human Androgen Receptor Binding RBA (%) R1881 = 100: <0.1%

## CC1(C)C(=O)N(c2ccc(C#N)c(F)c2)C(=O)N1CCCOc1ccc(-c2cc[n+]([O-])cc2)cc1 [EM-9176]
[1]; [3]
  IC50: > 100 nM
Human Androgen Receptor; transfected cells
  Human Androgen Receptor Binding RBA (%) R1881 = 100: ~0.1%

## CC1(C)C(=O)N(c2ccc(C#N)c(C(F)(F)F)c2)C(=O)N1CCOc1ccc(-c2cc[n+]([O-])cc2)cc1 [EM-9180]
[1]; [3]
  IC50: 24 nM
Human Androgen Receptor; transfected cells
  Human Androgen Receptor Binding RBA (%) R1881 = 100: 1.7%

## CC1(C)C(=O)N(c2ccc(C#N)c(Cl)c2)C(=O)N1CCCOc1ccc(-c2ccncc2)cc1F [EM-9198]
[1]; [3]
  IC50: 5.3 nM
[1]
  fold more potent than OH-flutamide in reversing DHT-stimulated Shionogi cell proliferation: 6.4 fold
Human Androgen Receptor; […]
  Human Androgen Receptor Binding RBA (%) R1881 = 100: 22%
Human Androgen Receptor
  times more potent than OH-flutamide on the human AR (RBA ratio): 105 times

## CC1(C)C(=O)N(c2ccc(C#N)c(C(F)(F)F)c2)C(=O)N1Cc1ccc(-c2ccncc2)cc1 [EM-9199]
[1]; [3]
  IC50: 27 nM
Human Androgen Receptor; transfected cells
  Human Androgen Receptor Binding RBA (%) R1881 = 100: 2.3%

## CC1(C)C(=O)N(c2ccc(C#N)c(C(F)(F)F)c2)C(=O)N1Cc1ccc(-c2cccnc2)cc1 [EM-9200]
[1]; [3]
  IC50: 66 nM
Human Androgen Receptor; transfected cells
  Human Androgen Receptor Binding RBA (%) R1881 = 100: 2.5%

## N#Cc1ccc(N2C(=O)N(CCCOc3ccc(-c4ccncc4)c(F)c3)C3(CCCC3)C2=O)cc1Cl [EM-9201]
[1]; [3]
  IC50: 9.7 nM
Human Androgen Receptor; […]
  Human Androgen Receptor Binding RBA (%) R1881 = 100: 70.8%

## Cc1c(N2C(=O)N(CCCOc3ccc(-c4ccncc4)c(F)c3)C(C)(C)C2=O)ccc(C#N)c1F [EM-9205]
[1]; [3]
  IC50: 14.8 nM
[1]
  fold more potent than OH-flutamide in reversing DHT-stimulated Shionogi cell proliferation: 2.3 fold
Human Androgen Receptor; transfected cells
  Human Androgen Receptor Binding RBA (%) R1881 = 100: 17.9%
Human Androgen Receptor
  times more potent than OH-flutamide on the human AR (RBA ratio): 85 times

## Cc1cc(OCCCN2C(=O)N(c3ccc(C#N)c(Cl)c3)C(=O)C2(C)C)ccc1-c1cc[n+]([O-])cc1 [EM-9221]
[1]; [3]
  IC50: 10.6 nM
Human Androgen Receptor; […]
  Human Androgen Receptor Binding RBA (%) R1881 = 100: 2.7%

## CC1(C)C(=O)N(c2ccc(C#N)c(Cl)c2)C(=O)N1CCCOc1ccc(-c2cc[n+]([O-])cc2)cc1F [EM-9226]
[1]; [3]
  IC50: 23 nM
Human Androgen Receptor; […]
  Human Androgen Receptor Binding RBA (%) R1881 = 100: 2.4%

## CC1(C)C(=O)N(c2ccc(C#N)c(C(F)(F)F)c2)C(=O)N1Cc1ccc(-c2ccncc2)c(F)c1 [EM-9227]
[1]; [3]
  IC50: 16.4 nM
Human Androgen Receptor; […]
  Human Androgen Receptor Binding RBA (%) R1881 = 100: 4.9%

## CC1(C)C(=O)N(c2ccc(C#N)c(C(F)(F)F)c2)C(=O)N1Cc1ccc(-c2cc[n+]([O-])cc2)c(F)c1 [EM-9228]
[1]; [3]
  IC50: 53 nM
Human Androgen Receptor; […]
  Human Androgen Receptor Binding RBA (%) R1881 = 100: 0.4%

## COc1cc(-c2ccncc2)ccc1OCCCN1C(=O)N(c2ccc(C#N)c(Cl)c2)C(=O)C1(C)C [EM-9261]
[1]; [3]
  IC50: 27 nM
Human Androgen Receptor; […]
  Human Androgen Receptor Binding RBA (%) R1881 = 100: 2.5%

## CC1(C)C(=O)N(c2ccc(C#N)c(Cl)c2)C(=O)N1CCCOc1ccc(-c2ccncc2F)cc1 [EM-9267]
[1]; [3]
  IC50: 16 nM
Human Androgen Receptor; transfected cells
  Human Androgen Receptor Binding RBA (%) R1881 = 100: 5.5%

## CC1(C)C(=O)N(c2ccc(C#N)c(C(F)(F)F)c2)C(=O)N1c1ccc(-c2ccncc2)cc1 [EM-9340]
[1]; [4]
  IC50: 126 nM
Human Androgen Receptor; transfected cells
  Human Androgen Receptor Binding RBA (%) R1881 = 100: 0.2%

## Cc1c(N2C(=O)N(c3ccc(-c4cccnc4)cc3)C(C)(C)C2=O)ccc(C#N)c1C(F)(F)F [EM-9342]
[1]; [3]
  IC50: 66 nM
Human Androgen Receptor; transfected cells
  Human Androgen Receptor Binding RBA (%) R1881 = 100: 0.4%

## Cc1c(N2C(=O)N(Cc3ccc(-c4ccncc4)cc3)C(C)(C)C2=O)ccc(C#N)c1Cl [EM-9343]
[1]; [3]
  IC50: 21 nM
Human Androgen Receptor; […]
  Human Androgen Receptor Binding RBA (%) R1881 = 100: 6.1%

## Cc1c(N2C(=O)N(c3ccc(-c4ccncc4)cc3)C(C)(C)C2=O)ccc(C#N)c1C(F)(F)F [EM-9344]
[1]; [3]
  IC50: 51 nM
Human Androgen Receptor; […]
  Human Androgen Receptor Binding RBA (%) R1881 = 100: 0.8%

## Cc1c(N2C(=O)N(Cc3ccc(-c4cc[n+]([O-])cc4)cc3)C(C)(C)C2=O)ccc(C#N)c1Cl [EM-9345]
[1]; [3]
  IC50: ~80 nM
Human Androgen Receptor; transfected cells
  Human Androgen Receptor Binding RBA (%) R1881 = 100: 0.5%
